Assay [1] concerns the target T1, Lp-PLA2 enzyme in human plasma (Homo sapiens, UniProt Q13093).
T1 construct: from tissue; host or cells: pooled (mixed) human plasma
T1 sequence (Q13093 22-441): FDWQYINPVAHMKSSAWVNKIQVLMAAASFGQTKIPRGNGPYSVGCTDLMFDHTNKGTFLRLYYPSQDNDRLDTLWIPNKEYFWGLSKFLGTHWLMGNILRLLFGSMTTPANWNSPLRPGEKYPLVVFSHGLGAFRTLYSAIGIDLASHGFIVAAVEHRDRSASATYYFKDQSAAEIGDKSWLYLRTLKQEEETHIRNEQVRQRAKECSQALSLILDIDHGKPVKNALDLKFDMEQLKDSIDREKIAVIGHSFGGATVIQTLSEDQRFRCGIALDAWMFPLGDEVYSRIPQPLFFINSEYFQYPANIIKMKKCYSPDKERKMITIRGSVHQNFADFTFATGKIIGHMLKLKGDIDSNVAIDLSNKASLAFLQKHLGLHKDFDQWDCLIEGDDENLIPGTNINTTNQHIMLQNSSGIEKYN
Put plainly: Human plasma Lp-PLA2 assay (Thio-PAF assay). The conditions noted are these: mixed human plasma; 2-thio-PAF substrate with CPM; 30 min pre-incubation; fluorescence ex 380/em 485; read-out: Thio-PAF (pIC50) (converted). It is filed as biochemical. As to the method: (2) Human Plasma Lp-PLA2 Assay (Also Known as Thio-PAF Assay)
The human plasma assay was conducted using the sulphatide analog of PAF (phosphatidylcholine), which is hydrolyzed to produce phospholipids containing free sulfhydryl groups, subjected to Michael addition with CPM to generate fluorescence-enhancing maleimide.
Continuous quantitative analysis of thiol could be conducted by detecting the fluorescence intensity. This assay can be used to detect the inhibitory activity of the Lp-PLA2 inhibitor on the Lp-PLA2 enzyme in human plasma.
Assay Method: The compound to be tested (as shown in Table 2) was mixed with a DMSO solution in a volume ratio of (1:3), and diluted to prepare a source plate of a 384-well microplate. Then 0.01 μl of the compound was transferred via an ECHO liquid dispenser from the source plate to a 384-well Greiner 784076 low-volume plate, and 8 μl of pre-aliquoted and frozen mixed human plasma was added. The plate was centrifuged at 500 rpm for 10 seconds. After a 30 min pre-incubation, 2 μl of a substrate solution, and containing 2.5 mM 2-thio-PAF (a solution in ethanol), 32 μM CPM (a solution in DMSO) and a buffer of 3.2 mM N-ethylmaleimide (NEM) (a buffer solution consisting of 50 mM HEPES, pH7.4, 150 mM NaCl, 1 mM CHAPS) was added by a BRAVO liquid handling station to a 384-well Greiner 784076 low-volume plate. After 2 min, the reaction was quenched with 5 μl of 5% trifluoroacetic acid. After the plate was incubated at room temperature for 40 min in a dark place, the fluorescence intensity was read at ex 380/em 485 with an Envision microplate reader, and the XL fitting model in Excel was used to perform the curve analysis and QC analysis to calculate pIC50.

The target in assay [2] is T2, Recombinant human Lp-PLA2 (Homo sapiens, UniProt Q13093).
T2 sequence (Q13093 22-441): T1 sequence (Q13093 22-441)
Put plainly: Recombinant human Lp-PLA2 (rhLp-PLA2) assay (PED6 assay). The conditions noted are these: PED6 substrate; recombinant human Lp-PLA2 enzyme at 4 nM or 110 pM; 30 min pre-incubation; fluorescence ex 480/em 540; read-out: rhLp-PLA2 (pIC50) (converted). The format is biochemical. The text has this: (1) Recombinant Human Lp-PLA2 (rhLp-PLA2) Assay (Also Known as PED6 Assay)
PED6 is a fluorescently labeled phospholipid that can be purchased directly from Invitogene or Molecular Probes. There is a fluorescence-quenching p-nitrophenyl group on the Sn3 position, and a Bodipy fluorescein (FL) group on the sn2 position. Once it is cleaved by the Lp-PLA2 enzyme, the FL group is released, resulting in enhanced fluorescence.
Assay method: The compound to be tested (as shown in Table 1) was mixed with DMSO solution at a volume ratio of 1:3, diluted to prepare a source plate of a 384-well microplate. Then 0.01 μl of the compound was transferred via an ECHO liquid dispenser from the source plate to a 384-well Greiner 784076 plate, and 5 microliters of a buffer composed of 50 mM HEPES, pH7.4, 150 mM NaCl, 1 mM CHAPS (the buffer solution contains Recombinant human Lp-PLA2 enzyme at a concentration of 4 nM or 110 pM) was added to each well on the plate. The plate was centrifuged at 500 rpm for 10 seconds. After 30 minutes of pre-incubation, 5 microliters of the above buffer solution was added to a 384-well Greiner784076 plate, and the plate was centrifuged at 500 rpm for 10 seconds.

Consider `Cc1ccc(Oc2c(F)cc(COc3nc(=O)n4c5c3OCCN5CC4)cc2F)cn1` [Compound 7], for which the IC50 was 20 nM in assay [1] and 0.251 nM in assay [2].

For `O=c1nc(OCc2cc(F)c(F)c(F)c2)c2c3n1CCCN3CCO2` [Compound 19], the values for the IC50 in assay [1] and in assay [2] were 63.1 nM and 3.98 nM, respectively.

As to `O=c1nc(OCc2cc(F)c(Oc3ccnc(C(F)(F)F)c3)c(F)c2)c2c3n1CCCN3CCO2` [Compound 15], the IC50 in assay [1] was 7.94 nM; in assay [2] it was 0.0631 nM.

With `O=c1nc(OCc2cc(F)c(Oc3ccc(C(F)(F)F)nc3)c(F)c2)c2c3n1CCCN3CCO2` [Compound 16], the IC50 in assay [1] is 10 nM; in assay [2], 0.0794 nM.

Turning to `Cc1ncc(Oc2c(F)cc(COc3nc(=O)n4c5c3OCCN5CC4)cc2F)cn1` [Compound 8], the IC50 in assay [1] is 39.8 nM; in assay [2] it was 1 nM.

Regarding `O=c1nc(OCc2cc(F)c(Oc3ccc(C(F)(F)F)cc3)c(F)c2)c2c3n1CCN3CCO2` [Compound 9], the IC50 in assay [1] is 10 nM; in assay [2], 0.158 nM.

For the compound `O=c1nc(OCc2cc(F)c(F)cc2F)c2c3n1CCN3CCO2` [Compound 1], the IC50 in assay [1] is 316 nM; in assay [2], 15.8 nM.

With `O=c1nc(OCc2cc(F)c(Oc3ccc(Cl)c(C(F)(F)F)c3)c(F)c2)c2c3n1CCN3CCO2` [Compound 13], the IC50 is 12.6 nM in assay [1] and 0.158 nM in assay [2].

For the compound `O=c1nc(OCc2cc(F)c(Oc3ccnc(C(F)(F)F)c3)c(F)c2)c2c3n1CCN3CCO2` [Compound 4], the IC50 in assay [1] was 12.6 nM; in assay [2] it was 0.126 nM.

For the compound `O=c1nc(OCc2cccc(F)c2F)c2c3n1CCN3CCO2` [Compound 2], the figures for the IC50 in assay [1] and in assay [2] were 158 nM and 10 nM, respectively.

Take `O=c1nc(OCc2cc(F)c(Oc3ccc(OC(F)(F)F)c(Cl)c3)c(F)c2)c2c3n1CCN3CCO2` [Compound 12]: the results for the IC50 in assay [1] and in assay [2] were 15.8 nM and 0.0794 nM, respectively.

`O=c1nc(OCc2cccc(F)c2F)c2c3n1CCCN3CCO2` [Compound 18]: the IC50 is 126 nM in assay [1] and 10 nM in assay [2].

In the case of `O=c1nc(OCc2cc(F)c(Oc3cccc(OC(F)(F)F)c3)c(F)c2)c2c3n1CCN3CCO2` [Compound 10], the values for the IC50 in assay [1] and in assay [2] were 15.8 nM and 0.2 nM, respectively.

`Cc1cc(Oc2c(F)cc(COc3nc(=O)n4c5c3OCCN5CC4)cc2F)ccc1Cl` [Compound 14]: the IC50 in assay [1] is 15.8 nM; in assay [2], 0.2 nM.

On to `O=c1nc(OCc2cc(F)c(F)c(F)c2)c2c3n1CCN3CCO2` [Compound 3], for which the IC50 in assay [1] was 50.1 nM; in assay [2], 3.16 nM.

For `O=c1nc(OCc2cc(F)c(Oc3ccc(C(F)(F)F)c(Cl)c3)c(F)c2)c2c3n1CCN3CCO2` [Compound 11], the IC50 is 10 nM in assay [1] and 0.1 nM in assay [2].

With `Cc1cc(Oc2c(F)cc(COc3nc(=O)n4c5c3OCCN5CC4)cc2F)ccn1` [Compound 6], the IC50 was 15.8 nM in assay [1] and 0.158 nM in assay [2].

With `Cc1ccc(Oc2c(F)cc(COc3nc(=O)n4c5c3OCCN5CCC4)cc2F)cn1` [Compound 17], the IC50 in assay [1] is 7.94 nM; in assay [2] it was 0.0501 nM.

As to `O=c1nc(OCc2cc(F)c(Oc3ccc(C(F)(F)F)nc3)c(F)c2)c2c3n1CCN3CCO2` [Compound 5], the IC50 in assay [1] was 20 nM; in assay [2] it was 0.2 nM.

Source of the values: patent US20230271980A1, “PREPARATION AND APPLICATION OF TRICYCLIC PYRIMIDINONE COMPOUND AND ITS COMPOSITION” (NEUSCO BIOTECH LIMITED, priority 2020, published 2023).
